According to US20030176314A1, “Compounds for the treatment of pain” (priority 2001, published 2003):
Structures can show the parent of a compound that is named as a salt. Each block holds one molecule with its values, some of them ahead of it.

What was measured:
[1] = molecular target: T1, human α2A adrenergic receptor (Homo sapiens, UniProt P08913); assay: Binding at human α2A adrenergic receptor; details: Table 8; read-out: hα2A Ki
T1 construct: host or cells: LM(tk-) cells, line L-α2A
T1 sequence (P08913 1-465): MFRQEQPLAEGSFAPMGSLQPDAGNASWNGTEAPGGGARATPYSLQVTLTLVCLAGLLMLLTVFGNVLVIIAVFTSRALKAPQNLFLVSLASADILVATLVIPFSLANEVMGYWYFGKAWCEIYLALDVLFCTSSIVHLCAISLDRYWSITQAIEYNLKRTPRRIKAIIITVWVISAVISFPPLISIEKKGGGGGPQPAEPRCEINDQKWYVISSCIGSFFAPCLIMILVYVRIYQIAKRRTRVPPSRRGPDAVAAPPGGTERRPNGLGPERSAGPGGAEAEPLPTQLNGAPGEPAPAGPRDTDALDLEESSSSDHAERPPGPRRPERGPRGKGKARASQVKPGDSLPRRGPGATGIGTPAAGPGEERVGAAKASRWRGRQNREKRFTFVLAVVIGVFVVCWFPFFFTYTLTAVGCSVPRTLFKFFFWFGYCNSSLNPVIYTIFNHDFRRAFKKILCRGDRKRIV
Excerpt: (§1) α2 Human Adrenergic Receptors: To determine the binding of compounds to human α2 receptors, LM(tk−) cell lines stably transfected with the genes encoding the α2A, α2B, and α2C receptors were used. The cell line expressing the α2A receptor is designated L-α2A, and was deposited on Nov. 6, 1992, under ATCC Accession No. CRL 11180. The cell line expressing the α2B receptor is designated L-NGC-α2B, and was deposited on Oct. 25, 1989, under ATCC Accession No. CRL 10275. The cell line expressing the α2C receptor is designated L-α2C, and was deposited on Nov. 6, 1992, under ATCC Accession No. CRL-11181. Cell lysates were prepared as described herin, and suspended in 25 mM glycyiglycine buffer (pH 7.6 at room temperature). Equilibrium competition binding assay were performed using […] (0.5 nM), and nonspecific binding was determined by incubation with 10 μM phentolamine. The bound radioligand was separated by filtration through GF/B filters using a cell harvester.
(§2) The binding affinity (Ki) of these compounds were tested according to the protocols described herein at the following receptors; human α1A, α1B, α1D, α2A, α2B, and α2C adrenergic receptors; human Y1, Y2, Y4, and Y5 receptors; and N-Methyl-D-aspartic acid (NMDA) receptor channels. The binding interactions of these compounds were additionally tested at the norepinephrine (NE) transporter (NE uptake) and serotonin (5-hydroxytryptamine (5HT)) transporter (5HT uptake) according to protocols described herein

[2] = molecular target: T2, human α2B adrenergic receptor (Homo sapiens, UniProt P18089); assay: Binding at human α2B adrenergic receptor; details: Table 8; read-out: hα2B Ki
T2 construct: host or cells: LM(tk-) cells, line L-NGC-α2B
T2 sequence (P18089 1-450): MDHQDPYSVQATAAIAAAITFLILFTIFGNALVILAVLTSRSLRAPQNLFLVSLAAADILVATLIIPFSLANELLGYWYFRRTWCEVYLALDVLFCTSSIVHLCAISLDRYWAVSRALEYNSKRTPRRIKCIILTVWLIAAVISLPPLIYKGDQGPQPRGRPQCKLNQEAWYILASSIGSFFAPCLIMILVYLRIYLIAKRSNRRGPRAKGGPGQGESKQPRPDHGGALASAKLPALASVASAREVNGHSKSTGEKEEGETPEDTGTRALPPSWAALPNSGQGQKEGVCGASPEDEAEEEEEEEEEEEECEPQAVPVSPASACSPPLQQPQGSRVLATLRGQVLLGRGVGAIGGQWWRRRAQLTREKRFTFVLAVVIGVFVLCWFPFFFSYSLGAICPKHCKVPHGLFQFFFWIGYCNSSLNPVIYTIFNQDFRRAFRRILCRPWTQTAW
Excerpt: as §1, §2

rat NPFF2 receptor = molecular target: T3, rat NPFF2 receptor (Rattus norvegicus, UniProt Q9EQD2); assay: Functional assay (agonist potency, intrinsic activity) at cloned rat NPFF2 receptor; type: cell-based; details: Table 7, intrinsic activity
T3 construct: The full-length NPFF2 was amplified from rat spinal cord cDNA; expressed in transfected cells; host or cells: not given
T3 sequence (Q9EQD2 whole entry): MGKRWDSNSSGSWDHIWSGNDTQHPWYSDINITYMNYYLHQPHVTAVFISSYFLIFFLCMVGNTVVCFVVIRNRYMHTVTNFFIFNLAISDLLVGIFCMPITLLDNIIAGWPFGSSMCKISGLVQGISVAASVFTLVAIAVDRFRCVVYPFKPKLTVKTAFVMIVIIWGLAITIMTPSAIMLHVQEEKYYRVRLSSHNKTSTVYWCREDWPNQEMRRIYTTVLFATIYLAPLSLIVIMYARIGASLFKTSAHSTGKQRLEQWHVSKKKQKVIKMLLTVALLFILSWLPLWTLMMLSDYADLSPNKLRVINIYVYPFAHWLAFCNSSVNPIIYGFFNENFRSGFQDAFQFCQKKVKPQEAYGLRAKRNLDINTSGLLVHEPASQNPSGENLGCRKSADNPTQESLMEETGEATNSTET

[3] = molecular target: N-methyl-D-aspartate (NMDA) receptor channel complex; assay: Binding at native NMDA receptor channels; set-up: species or system rat; details: Table 8
Description: NMDA Receptor Channels: The methods to determine binding affinity at native N-methyl-D-aspartate (NMDA) receptor channels are described in Wong E. H. et al. (1988), the disclosure of which is hereby incorporated by reference in its entirety into this application.
as §2

[4] = molecular target: T4, human α2C adrenergic receptor (Homo sapiens, UniProt P18825); assay: Binding at human α2C adrenergic receptor; details: Table 8; read-out: hα2C Ki
T4 construct: host or cells: LM(tk-) cells, line L-α2C
T4 sequence (P18825 1-462): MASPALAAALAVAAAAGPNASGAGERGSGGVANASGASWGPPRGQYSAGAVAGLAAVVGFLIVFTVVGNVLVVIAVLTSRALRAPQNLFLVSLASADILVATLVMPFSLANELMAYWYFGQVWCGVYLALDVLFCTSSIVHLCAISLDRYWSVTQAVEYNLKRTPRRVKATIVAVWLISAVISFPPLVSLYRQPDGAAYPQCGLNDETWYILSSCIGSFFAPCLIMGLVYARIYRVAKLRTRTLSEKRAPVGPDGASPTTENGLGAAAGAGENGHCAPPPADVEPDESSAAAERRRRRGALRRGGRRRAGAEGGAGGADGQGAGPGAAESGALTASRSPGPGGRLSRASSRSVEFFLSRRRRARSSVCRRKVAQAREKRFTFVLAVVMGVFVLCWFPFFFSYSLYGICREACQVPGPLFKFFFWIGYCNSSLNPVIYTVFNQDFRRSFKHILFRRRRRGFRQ
Excerpt: as §1, §2

[5] = molecular target: T5, norepinephrine (NE) transporter (Rattus norvegicus, UniProt Q63380); assay: Binding at native norepinephrine transporter (NE uptake); details: Table 8
T5 construct: evaluated at native, tissue-derived transporters; from tissue
T5 sequence (Q63380 1-617): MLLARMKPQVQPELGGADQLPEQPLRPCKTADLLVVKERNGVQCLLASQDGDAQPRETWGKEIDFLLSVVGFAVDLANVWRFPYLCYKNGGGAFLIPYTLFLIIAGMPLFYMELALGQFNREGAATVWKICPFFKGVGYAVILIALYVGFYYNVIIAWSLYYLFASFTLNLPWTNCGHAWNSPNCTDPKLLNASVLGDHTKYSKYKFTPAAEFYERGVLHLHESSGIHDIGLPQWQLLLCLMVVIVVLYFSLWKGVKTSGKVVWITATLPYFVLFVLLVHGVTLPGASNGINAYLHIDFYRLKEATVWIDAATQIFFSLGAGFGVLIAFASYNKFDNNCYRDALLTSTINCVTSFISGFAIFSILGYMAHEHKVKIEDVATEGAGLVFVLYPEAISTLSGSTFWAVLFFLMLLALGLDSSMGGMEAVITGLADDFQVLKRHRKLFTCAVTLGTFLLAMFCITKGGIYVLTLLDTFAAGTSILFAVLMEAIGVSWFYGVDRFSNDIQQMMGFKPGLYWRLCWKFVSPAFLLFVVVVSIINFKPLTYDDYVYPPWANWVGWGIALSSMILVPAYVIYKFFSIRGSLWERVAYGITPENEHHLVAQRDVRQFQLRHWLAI
Description: (§3) Transporters: The binding properties of compounds were evaluated at native, tissue-derived transporters, namely serotonin (5HT) transporter and norepinephrine (NE) transporter, according to protocols described in Owens (1997), the disclosure of which is hereby incorporated by reference in its entirety into this application.
as §2

[6] = molecular target: T6, serotonin (5HT) transporter (Rattus norvegicus, UniProt P31652); assay: Binding at native serotonin transporter (5HT uptake); details: Table 8
T6 construct: evaluated at native, tissue-derived transporters; from tissue
T6 sequence (P31652 whole entry): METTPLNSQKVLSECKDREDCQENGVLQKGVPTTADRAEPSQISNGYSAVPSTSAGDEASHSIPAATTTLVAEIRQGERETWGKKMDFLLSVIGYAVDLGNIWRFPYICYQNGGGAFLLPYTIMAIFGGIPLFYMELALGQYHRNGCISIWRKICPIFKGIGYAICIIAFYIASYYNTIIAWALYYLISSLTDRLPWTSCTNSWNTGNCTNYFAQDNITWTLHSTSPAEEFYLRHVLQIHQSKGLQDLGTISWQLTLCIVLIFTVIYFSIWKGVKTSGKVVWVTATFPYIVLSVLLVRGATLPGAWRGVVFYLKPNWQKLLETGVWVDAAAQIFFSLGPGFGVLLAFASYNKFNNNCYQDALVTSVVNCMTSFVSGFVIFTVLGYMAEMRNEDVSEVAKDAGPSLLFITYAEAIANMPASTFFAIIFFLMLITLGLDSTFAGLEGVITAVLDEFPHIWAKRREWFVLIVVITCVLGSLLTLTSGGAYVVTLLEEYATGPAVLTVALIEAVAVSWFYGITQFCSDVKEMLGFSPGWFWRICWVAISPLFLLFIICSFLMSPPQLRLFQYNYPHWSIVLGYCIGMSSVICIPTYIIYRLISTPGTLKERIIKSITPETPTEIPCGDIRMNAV
Description: as §3, §2

rat NPFF1 receptor = molecular target: T7, rat NPFF1 receptor (Rattus norvegicus, UniProt Q9EP86); assay: Functional assay (agonist potency, intrinsic activity) at cloned rat NPFF1 receptor; type: cell-based; details: Table 7, intrinsic activity
T7 construct: expressed in transfected cells; host or cells: not given
T7 sequence (Q9EP86 whole entry): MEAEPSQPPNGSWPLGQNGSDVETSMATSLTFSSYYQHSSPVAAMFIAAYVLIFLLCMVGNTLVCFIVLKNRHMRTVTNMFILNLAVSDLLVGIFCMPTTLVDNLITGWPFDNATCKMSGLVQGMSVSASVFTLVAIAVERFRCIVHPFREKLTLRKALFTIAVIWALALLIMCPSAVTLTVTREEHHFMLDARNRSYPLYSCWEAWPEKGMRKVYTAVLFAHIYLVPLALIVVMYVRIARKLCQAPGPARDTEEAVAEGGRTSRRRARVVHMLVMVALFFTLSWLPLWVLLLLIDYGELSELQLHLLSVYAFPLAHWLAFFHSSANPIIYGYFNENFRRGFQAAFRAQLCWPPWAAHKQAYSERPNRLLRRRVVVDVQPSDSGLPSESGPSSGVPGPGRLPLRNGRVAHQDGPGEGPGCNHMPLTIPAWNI

human NPFF2 receptor = molecular target: T8, human NPFF2 receptor (Homo sapiens, UniProt Q9Y5X5); assay: Functional assay (agonist potency, intrinsic activity) at cloned human NPFF2 receptor; type: cell-based; details: Table 6, intrinsic activity
T8 construct: one of these, B089, was determined to be a full length clone with no point mutations; expressed in transfected cells; host or cells: not given
T8 sequence (Q9Y5X5 103-522): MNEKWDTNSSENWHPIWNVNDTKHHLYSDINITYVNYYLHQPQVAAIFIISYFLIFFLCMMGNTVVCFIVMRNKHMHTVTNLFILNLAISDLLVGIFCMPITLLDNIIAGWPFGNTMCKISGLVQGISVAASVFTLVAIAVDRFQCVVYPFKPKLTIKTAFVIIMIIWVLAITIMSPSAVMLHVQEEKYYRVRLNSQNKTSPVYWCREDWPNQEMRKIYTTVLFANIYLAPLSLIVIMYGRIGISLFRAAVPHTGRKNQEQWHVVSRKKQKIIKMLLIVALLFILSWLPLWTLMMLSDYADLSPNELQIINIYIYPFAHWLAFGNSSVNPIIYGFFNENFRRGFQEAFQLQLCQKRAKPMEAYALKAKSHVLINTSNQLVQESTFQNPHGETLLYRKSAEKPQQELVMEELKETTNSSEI

[7] = system: distension induced contractions of the rat bladder; assay: Distension-induced rhythmic contraction (DIRC) model, micturition reflex in anesthetized rats; type: in vivo
Excerpt: This model is widely considered to be predictive for the actions of drugs to treat human urge incontinence (also refered to as detrusor instability or unstable bladder). Examples of drugs that are active in this model which also are used therapeutically in humans include oxybutynin and baclofen (Morikawa et al, 1992); imipramine and nortriptyline (Pietra et al, 1990); and nifedipine and terodiline (Guarneri et al, 1993).
Female Sprague Dawley rats weighing approximately 300 g were anesthetized with subcutaneous urethane (1.2 g/kg). The trachea was cannulated with PE240 tubing to provide a clear airway throughout the experiment. A midline abdominal incision was made and the left and right ureters were isolated. The ureters were ligated distally (to prevent escape of fluids from the bladder) and cannulated proximally with PE10 tubing. The incision was closed using 4-0 silk sutures, leaving the PE10 lines routed to the exterior for the elimination of urine. The bladder was canulated via the transurethral route using PE50 tubing inserted 2.5 cm beyond the urethral opening. This cannula was secured to the tail using tape and connected to a pressure transducer. To prevent leakage from the bladder, the cannula was tied tightly to the exterior urethral opening using 4-0 silk.
To initiate the micturition reflex, the bladder was first emptied by applying pressure to the lower abdomen, and then filled with normal saline in 100 μl increments (maximum=2 ml) until spontaneous bladder contractions occurred (typically 20-40 mmHg at a rate of one contraction every 2 to 3 minutes. Once a regular rhythm was established, vehicle (saline) or test compounds were administered i.v. to examine their effects on bladder activity. The effect of a compound which inhibited the micturition reflex was expressed as its “disappearance time”, defined as the time between successive bladder contractions in the presence of the test compound minus the time between contractions before compound administration.

[8] = system: distension induced contractions of the rat bladder; details: drugs used therapeutically in humans, from publications; cited from earlier work

Structure (SMILES): CCc1ccc2c(C)nc(NC(=N)N)nc2c1 [Compound 1020A, N-(7-ethyl-4-methyl-2-quinazolinyl)guanidine]
Ki [5]: 8.02 µM
Ki [1]: 1.17 µM
Ki [2]: 20.9 µM
rNPFF2 IA (rat NPFF2 receptor): 90% NPFF
Ki [4]: 4.13 µM
Ki [6]: 5.59 µM

Structure (SMILES): CCCCCc1ccc2nc(NC(=N)N)nc(C)c2c1 [Compound 2001A, N-(4-methyl-6-pentyl-2-quinazolinyl)guanidine]
Ki [5]: 1.16 µM
Ki [1]: 0.808 µM
rNPFF1 IA (rat NPFF1 receptor): 71% NPFF
Ki [2]: 7.41 µM
hNPFF2 IA (human NPFF2 receptor): 84% NPFF
rNPFF2 IA (rat NPFF2 receptor): 103% NPFF
Ki [3]: 8.13 µM
Ki [4]: 1.91 µM
Ki [6]: 0.962 µM

Structure (SMILES): Cc1ccc2c(C)cc(NC(=N)N)nc2c1 [Compound 4006A, N-(4,7-dimethyl-2-quinolinyl)guanidine]
Ki [5]: 12.4 µM
rNPFF2 IA (rat NPFF2 receptor): 32% NPFF
inhibition of distention induced contractions of the rat bladder ([7]; 3 mg/kg, i.v.): complete inhibition
time for which inhibition of bladder activity persisted ([7]; i.v. administration, anesthetized rat (figure legends)): 12 min
Ki [6]: 8.79 µM

Structure (SMILES): CCCCCCc1ccc2nc(NC(=N)N)cc(C)c2c1 [Compound 5003A, N-(6-hexyl-4-methyl-2-quinolinyl)guanidine]
rNPFF1 IA (rat NPFF1 receptor): 27% NPFF
hNPFF2 IA (human NPFF2 receptor): 45% NPFF
rNPFF2 IA (rat NPFF2 receptor): 57% NPFF

Structure (SMILES): NCC(CC(=O)O)c1ccc(Cl)cc1 (stereo not drawn) [baclofen]
activity in the DIRC model [8]: active

Structure (SMILES): CN(C)CCCN1c2ccccc2CCc2ccccc21 [imipramine]
activity in the DIRC model [8]: active

Structure (SMILES): CNCCC=C1c2ccccc2CCc2ccccc21 [nortriptyline]
activity in the DIRC model [8]: active

Structure (SMILES): CCN(CC)CC#CCOC(=O)C(O)(c1ccccc1)C1CCCCC1 (stereo not drawn) [oxybutynin]
activity in the DIRC model [8]: active

Structure (SMILES): CC(CC(c1ccccc1)c1ccccc1)NC(C)(C)C (stereo not drawn) [terodiline]
activity in the DIRC model [8]: active

The remaining lines, values ahead:

melting point: 215 to 217 °C (dec.)
Structure (SMILES): Cc1nc(NC(=N)N)nc2cc(OCc3ccccc3)ccc12 (as salt: salt) [Compound 1006A, N-[7-(benzyloxy)-4-methyl-2-quinazolinyl]guanidine]

melting point: 246 to 248 °C (dec.)
Structure (SMILES): Cc1cc2nc(NC(=N)N)nc(C)c2cc1O (as salt: salt) [Compound 1017A, N-(6-hydroxy-4,7-dimethyl-2-quinazolinyl)guanidine]

Ki [1]: 1.97 µM
Ki [2]: 31.8 µM
rNPFF2 IA (rat NPFF2 receptor): 83% NPFF
Ki [3]: 19.5 µM
Ki [4]: 8.45 µM
Structure (SMILES): CCc1ccc2nc(NC(=N)N)nc(C)c2c1 [Compound 1003A, N-(6-ethyl-4-methyl-2-quinazolinyl)guanidine]

melting point: 195 to 198 °C (dec.)
rNPFF1 IA (rat NPFF1 receptor): 19% NPFF
rNPFF2 IA (rat NPFF2 receptor): 81% NPFF
Structure (SMILES): Cc1nc(NC(=N)N)nc2cc(C(C)(C)C)ccc12 [Compound 1022A, N-[7-(tert-butyl)-4-methyl-2-quinazolinyl]guanidine]

hNPFF2 IA (human NPFF2 receptor): 43% NPFF
rNPFF2 IA (rat NPFF2 receptor): 35% NPFF
Structure (SMILES): Cc1nc(NC(=N)N)nc2cc(-c3ccccc3)ccc12 [Compound 1023A, N-(4-methyl-7-phenyl-2-quinazolinyl)guanidine]

melting point: 295 to 298 °C (dec.)
rNPFF2 IA (rat NPFF2 receptor): 74% NPFF
Structure (SMILES): Cc1nc(NC(=N)N)nc2cc3c(cc12)CCC3 [Compound 1038A, N-(4-methyl-7,8-dihydro-6H-cyclopenta[g]quinazolin-2-yl)guanidine]

Ki [1]: 0.713 µM
rNPFF1 IA (rat NPFF1 receptor): 51% NPFF
Ki [2]: 12.9 µM
rNPFF2 IA (rat NPFF2 receptor): 92% NPFF
Ki [3]: 7.62 µM
Ki [4]: 3.33 µM
Structure (SMILES): CCC(C)c1ccc2nc(NC(=N)N)nc(C)c2c1 (stereo not drawn) [Compound 2002A, N-(6-sec-butyl-4-methyl-2-quinazolinyl)guanidine]

Ki [1]: 0.267 µM
Ki [2]: 10.4 µM
hNPFF2 IA (human NPFF2 receptor): 69% NPFF
rNPFF2 IA (rat NPFF2 receptor): 84% NPFF
Ki [3]: 12.8 µM
Ki [4]: 1.4 µM
Structure (SMILES): CCc1ccc2nc(NC(=N)N)cc(C)c2c1 [Compound 4002A, N-(6-ethyl-4-methyl-2-quinolinyl)guanidine]

rNPFF1 IA (rat NPFF1 receptor): 41% NPFF
hNPFF2 IA (human NPFF2 receptor): 75% NPFF
rNPFF2 IA (rat NPFF2 receptor): 90% NPFF
Structure (SMILES): CCCCCc1ccc2nc(NC(=N)N)cc(C)c2c1 [Compound 5002A, N-(4-methyl-6-pentyl-2-quinolinyl)guanidine]
